Source: paper PMC5777239 (Science signaling, 2017)
One block for each molecule: values may come before it.

Experiments:
[1] = system: RXRA (Gal4-RXRA reporter); assay: Gal4-RXRA UAS-GFP Kit+ reporter cells treated with plasma from treated mice; type: in vivo, mouse; conditions: Kit+ cells transduced with Gal4-RXRA, plasma from mice exposed to the agent
RXRA [2] = target: T1, RXRA (Homo sapiens, UniProt P19793); conditions: cited from earlier work
T1 sequence (P19793 1-462): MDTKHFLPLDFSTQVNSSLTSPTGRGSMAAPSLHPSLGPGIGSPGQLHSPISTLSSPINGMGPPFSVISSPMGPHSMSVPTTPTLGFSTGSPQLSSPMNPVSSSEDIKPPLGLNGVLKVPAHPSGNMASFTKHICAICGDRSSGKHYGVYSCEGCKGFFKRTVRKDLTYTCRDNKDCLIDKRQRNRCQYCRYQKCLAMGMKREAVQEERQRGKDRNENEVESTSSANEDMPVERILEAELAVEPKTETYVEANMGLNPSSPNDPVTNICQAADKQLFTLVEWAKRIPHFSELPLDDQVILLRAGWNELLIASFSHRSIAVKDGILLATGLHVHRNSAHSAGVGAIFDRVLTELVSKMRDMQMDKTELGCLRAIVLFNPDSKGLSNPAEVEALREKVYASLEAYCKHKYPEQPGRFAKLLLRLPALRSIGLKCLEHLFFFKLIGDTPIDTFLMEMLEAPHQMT

Flag-Gal4 DBD-RXRA LBD = target: T2, Flag-Gal4 DBD-RXRA LBD (Homo sapiens, UniProt P19793); type: binding; conditions: 293T-FXP cells treated with serum up to 24 hours
T2 sequence (P19793 227-458 limits assumed): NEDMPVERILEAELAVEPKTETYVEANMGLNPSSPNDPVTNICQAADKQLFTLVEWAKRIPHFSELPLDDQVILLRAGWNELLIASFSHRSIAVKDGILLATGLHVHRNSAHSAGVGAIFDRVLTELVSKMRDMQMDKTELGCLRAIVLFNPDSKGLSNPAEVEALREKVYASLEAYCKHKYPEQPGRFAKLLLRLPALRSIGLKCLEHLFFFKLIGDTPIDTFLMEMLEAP

[3] = target: T3, RXRA (Gal4-DBD fused to RXRA-LBD) (Homo sapiens, UniProt P19793); type: cell-based, mouse; conditions: primary UAS-GFP Kit+ cells transduced with Gal4-RXRA; synthesized fatty acids
T3 sequence (P19793 227-458 limits assumed): T2 sequence (P19793 227-458 limits assumed)

RXR alpha LBD-GST [4] = target: T4, RXR alpha LBD-GST (Homo sapiens, UniProt P19793); assay: LanthaScreen TR-FRET Retinoic X Receptor alpha Coactivator assay; type: biochemical
T4 sequence (P19793 227-458 limits assumed): T2 sequence (P19793 227-458 limits assumed)

RXRA [5] = target: T1, RXRA; assay: DR1x3-TK-Luc luciferase reporter in 293T cells with full-length RXRA; type: cell-based; conditions: 40 hour incubation
[6] = system: mouse hematopoietic cells; type: in vivo; conditions: after PHZ treatment, mass spectrometry
[7] = system: RXRA (Gal4-RXRA reporter); type: in vivo, mouse; conditions: for proportion of GFP+mCherry+ cells in total bone marrow cells / single cell abundance of GFP, mean fluorescence intensity (MFI): Gal4-RXRA transplanted mice; for proportion of GFP+mCherry+ cells in total bone marrow cells: compared to mice without treatment; for single cell abundance of GFP, mean fluorescence intensity (MFI): whole bone marrow cells
RXR alpha LBD-GST [8] = assay: FRET or BRET

Molecule: O=c1[nH]cc(F)c(=O)[nH]1 [5-FU, 5-fluoruracil]
- UAS-GFP reporter output with plasma from treated mice [1]: did not observe an increase

Molecule: CCCCC/C=C\C/C=C\C/C=C\C/C=C\CCCC(=O)O [AA, arachidonic acid]
- activation of RXRA in vitro (luciferase reporter) (RXRA [2]): activate RXRA in vitro

- binding to Flag-Gal4-RXRA in pull-down (MS) (Flag-Gal4 DBD-RXRA LBD): bound to RXRA in a time-dependent manner
- activation of the GFP reporter [3]: did not activate the GFP reporter
Molecule: CC/C=C\C/C=C\C/C=C\C/C=C\C/C=C\CCCCCCCC(=O)O [C24:4, (9Z, 12Z, 15Z, 18Z, 21Z)-tetracosa-9,12,15,18,21-tetraenoic acid]
- binding of PGC1 and D22 co-activator peptides (TR-FRET) (RXR alpha LBD-GST [4]): did not lead to binding of either PGC1 or D22

- activation of DR1-luciferase reporter (RXRA [5]): could activate a DR1-luciferase reporter
- binding to Flag-Gal4-RXRA in pull-down (MS) (Flag-Gal4 DBD-RXRA LBD): bound to RXRA in a time-dependent manner
Molecule: CC/C=C\C/C=C\C/C=C\C/C=C\C/C=C\CCCCCCCC(=O)O [C24:5, (9Z, 12Z, 15Z, 18Z, 21Z)-tetracosa-9,12,15,18,21-pentaenoic acid]
- binding of PGC1 and D22 co-activator peptides (TR-FRET) (RXR alpha LBD-GST [4]): induced dose-dependent binding of both PGC1 and D22 peptides

- binding to Flag-Gal4-RXRA in pull-down (MS) (Flag-Gal4 DBD-RXRA LBD): bound to RXRA in a time-dependent manner
Molecule: CC/C=C\C/C=C\C/C=C\C/C=C\C/C=C\C/C=C\CCC(=O)O [DHA, docosahexaenoic acid]
- activation of RXRA in vitro (luciferase reporter) (RXRA [2]): activate RXRA in vitro

Molecule: CC/C=C\C/C=C\C/C=C\C/C=C\C/C=C\CCCCCC(=O)O [DPA, docosapentaenoic acid]
- activation of RXRA in vitro (luciferase reporter) (RXRA [2]): activate RXRA in vitro

Molecule: NNc1ccccc1 [PHZ, phenylhydrazine]
- UAS-GFP reporter output with plasma from treated mice [1]: increased
- concentrations of fatty acids C24:4 and C24:5 in bone marrow cells [6]: increased two-fold
- concentrations of fatty acids C24:4 and C24:5 in peripheral blood cells [6]: increased three-fold
- proportion of GFP+mCherry+ cells in total bone marrow cells [7]: increase
- single cell abundance of GFP, mean fluorescence intensity (MFI) [7]: increased
- WBC peak following treatment ([7]; granulopoiesis following PHZ treatment): 18-22,000 /μl

- EC50 of the ligand C24:5 for induced binding of the peptide (RXR alpha LBD-GST [8]): 94 nM
- EC50 of the ligand DHA for induced binding of the peptide (RXR alpha LBD-GST [8]): 86 nM
Molecule: Fluorescein-PGC1α peptide

B1: granulocyte colony stimulating factor (protein, UniProt P09919 31-207, looked up)
Granulocyte …: TPLGPASSLPQSFLLKCLEQVRKIQGDGAALQEKLVSECATYKLCHPEELVLLGHSLGIPWAPLSSCPSQALQLAGCLSQLHSGLFLYQGLLQALEGISPELGPTLDTLQLDVADFATTIWQQMEELGMAPALQPTQGAMPAFASAFQRRAGGVLVASHLQSFLEVSYRVLRHLAQP
- UAS-GFP reporter output with plasma from treated mice [1]: increased
- proportion of GFP+mCherry+ cells in total bone marrow cells [7]: increase
- single cell abundance of GFP, mean fluorescence intensity (MFI) [7]: increased
